Reference: ChEMBL document CHEMBL1150152, “Araguspongines K and L, new bioactive bis-1-oxaquinolizidine N-oxide alkaloids from Red Sea specimens of Xestospongia exigua” (J Nat Prod, 2002)
Converted amounts (≈) assume the structure as drawn. The source made the active and inactive calls. The calls are words filed in the database; no cut-off is given here.

Key:
[1] = test system: Mycobacterium tuberculosis; assay: Antitubercular activity against Mycobacterium tuberculosis H37Rv by alamar blue assay; format: functional
[2] = test system: Plasmodium falciparum; assay: Antimalarial activity against Plasmodium falciparum D6; format: functional, organism-based
[3] = test system: Plasmodium falciparum; assay: Antimalarial activity against Plasmodium falciparum W2; format: functional, organism-based

Compound | MIC [1] | Activity [2] | Activity [3] | IC50 [2] | IC50 [3]
CO[C@H]1/C=C/O[C@@]2(C)Oc3c(C)c(O)c4c(O)c(c(/C=N/N5CCN(C)CC5)c(O)c4c3C2=O)NC(=O)/C(C)=C\C=C\[C@H](C)[C@H](O)[C@@H](C)[C@@H](O)[C@@H](C)[C@H](OC(C)=O)[C@@H]1C [RIFAMPIN] | 0.61 µM (≈ 0.502 µg/mL) |  |  |  | 
[O-][N+]12CCC[C@]3(O)CCCCCC[C@@H]4CCN5CCC[C@](O)(CCCCCC[C@H](CC1)O[C@@H]32)[C@@H]5O4 (stereo not given in full) |  | inactive | inactive |  | 
O[C@]12CCCCCC[C@@H]3CCN4CCC[C@](O)(CCCCCC[C@@H]5CCN(CCC1)[C@H]2O5)[C@@H]4O3 | 3.94 µM (≈ 1.89 µg/mL) |  |  | 0.67 µg/mL (≈ 1.4 µM) | 0.28 µg/mL (≈ 0.585 µM)
C[C@@H]1CC[C@H]2[C@@H](C)C(=O)O[C@@H]3O[C@@]4(C)CC[C@@H]1[C@]32OO4 [ARTEMISININ] |  |  |  | 0.006 µg/mL (≈ 0.0213 µM) | 0.007 µg/mL (≈ 0.0248 µM)
[O-][N+]12CCC[C@]3(O)CCCCCC[C@@H]4CCN5CCC[C@@H](CCCCCC[C@H](CC1)O[C@@H]32)[C@@H]5O4 (stereo not given in full) |  | inactive | inactive |  | 
